The target of test [1] is T1, isocitrate lyase (ICL) (Candida albicans, UniProt Q9P8Q7).
T1 construct: gene ICL1
Briefly: positive control in enzyme assay with purified ICL, glyoxylate phenylhydrazone formation at […] nm. Type of test: biochemical.

Test [2] has as its target T1, isocitrate lyase (ICL). The test is described as follows: enzyme assay with purified ICL, glyoxylate phenylhydrazone formation at […] nm. It counts as biochemical.

T1 sequence (Q9P8Q7 whole entry): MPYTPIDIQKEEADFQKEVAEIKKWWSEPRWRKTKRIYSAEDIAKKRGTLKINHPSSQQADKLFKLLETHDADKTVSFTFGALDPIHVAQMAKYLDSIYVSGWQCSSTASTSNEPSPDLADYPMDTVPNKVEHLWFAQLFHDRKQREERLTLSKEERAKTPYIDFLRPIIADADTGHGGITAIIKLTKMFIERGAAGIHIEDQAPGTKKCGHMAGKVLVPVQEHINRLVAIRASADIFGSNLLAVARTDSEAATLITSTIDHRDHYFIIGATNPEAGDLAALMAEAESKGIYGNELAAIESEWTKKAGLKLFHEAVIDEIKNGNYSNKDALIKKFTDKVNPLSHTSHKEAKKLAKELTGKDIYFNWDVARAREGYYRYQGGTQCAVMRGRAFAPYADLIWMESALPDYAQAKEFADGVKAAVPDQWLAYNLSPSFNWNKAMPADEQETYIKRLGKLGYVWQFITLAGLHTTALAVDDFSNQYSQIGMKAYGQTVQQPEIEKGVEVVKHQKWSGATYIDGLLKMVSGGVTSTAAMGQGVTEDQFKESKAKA

For the compound `O=C(O)CC[N+](=O)[O-]` [3-Nitropropionic acid], 11.3 µM corresponded to half-maximal inhibition in test [1] (IC50). On to `C=C[C@@H](O)[C@H](O)/C=C/C=C/C=C/C=C/[C@@H](O)[C@@H](C)O` [compound 1, Separacene A], for which the IC50 – broadly, the concentration at which inhibition is half-maximal – in test [2] worked out at 172 µM.

The record behind these values is PMC3766871, “Separacenes A–D, Novel Polyene Polyols from the Marine Actinomycete, Streptomyces sp” (Marine Drugs, 2013).
